Data from ChEMBL document CHEMBL1268988, “An in situ oxidation strategy towards overcoming hERG affinity” (Bioorg Med Chem Lett, 2010).

What was measured:
[1] = Inhibition of HIV1 gp160 by cell-cell fusion inhibition assay; set-up: species or system Human immunodeficiency virus 1
[2] = Membrane permeability across dog RRCK at 2 uM; type: ADME, cell-based, Canis lupus familiaris, MDCKII-LE; details: MDCK, read-out: permeability
[3] = molecular target: T1, Voltage-gated inwardly rectifying potassium channel KCNH2 (Homo sapiens, UniProt Q12809); test: Inhibition of human ERG at 10 uM
T1 sequence (Q12809 whole entry): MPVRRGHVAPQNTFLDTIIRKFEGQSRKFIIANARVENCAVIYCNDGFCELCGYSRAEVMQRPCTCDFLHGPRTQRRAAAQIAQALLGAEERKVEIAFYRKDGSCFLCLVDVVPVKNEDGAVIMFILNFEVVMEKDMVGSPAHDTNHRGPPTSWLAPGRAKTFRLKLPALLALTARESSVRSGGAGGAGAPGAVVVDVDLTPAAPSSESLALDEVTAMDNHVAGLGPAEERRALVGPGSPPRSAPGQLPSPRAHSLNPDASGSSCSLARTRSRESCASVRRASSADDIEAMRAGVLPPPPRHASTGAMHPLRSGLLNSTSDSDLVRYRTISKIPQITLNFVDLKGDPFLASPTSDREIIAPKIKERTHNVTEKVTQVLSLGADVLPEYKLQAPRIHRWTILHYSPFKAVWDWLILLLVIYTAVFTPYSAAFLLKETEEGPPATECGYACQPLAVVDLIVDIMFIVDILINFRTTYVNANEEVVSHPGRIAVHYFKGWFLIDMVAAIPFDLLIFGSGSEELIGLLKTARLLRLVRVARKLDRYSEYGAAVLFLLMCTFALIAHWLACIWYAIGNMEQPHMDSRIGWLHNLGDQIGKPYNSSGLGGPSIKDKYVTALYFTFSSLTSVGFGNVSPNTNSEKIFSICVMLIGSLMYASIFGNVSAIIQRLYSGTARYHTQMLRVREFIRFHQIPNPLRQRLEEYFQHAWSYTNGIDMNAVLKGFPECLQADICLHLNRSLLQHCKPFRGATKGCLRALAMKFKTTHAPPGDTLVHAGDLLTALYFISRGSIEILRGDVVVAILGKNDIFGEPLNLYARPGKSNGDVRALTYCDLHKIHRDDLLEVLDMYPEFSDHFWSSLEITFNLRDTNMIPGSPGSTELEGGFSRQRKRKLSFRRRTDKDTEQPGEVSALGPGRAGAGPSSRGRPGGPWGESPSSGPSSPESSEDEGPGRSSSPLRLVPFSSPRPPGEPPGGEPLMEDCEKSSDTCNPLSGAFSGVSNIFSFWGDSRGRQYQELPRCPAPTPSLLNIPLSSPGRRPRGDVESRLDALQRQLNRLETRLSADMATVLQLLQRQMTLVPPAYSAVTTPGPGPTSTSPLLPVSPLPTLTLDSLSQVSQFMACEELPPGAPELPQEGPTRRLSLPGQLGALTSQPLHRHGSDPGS

[4] = Metabolic stability in human liver microsomes assessed as intrinsic clearance at 1 uM; type: ADME, Microsome
[5] = Lipophilicity, log D of the compound; type: physicochemical; details: octanol/water
[6] = Clearance in rat at 1 mg/kg, iv and 2 mg/kg, po; type: ADME, organism-based; details: in vivo
[7] = Oral bioavailability in rat at 1 mg/kg, iv and 2 mg/kg, po; type: ADME, organism-based; details: in vivo
[8] = Half life in rat at 1 mg/kg, iv and 2 mg/kg, po; type: ADME, organism-based; details: in vivo
[9] = molecular target: T1, Voltage-gated inwardly rectifying potassium channel KCNH2; test: Inhibition of human ERG
[10] = Volume of distribution in rat at 1 mg/kg, iv and 2 mg/kg, po; type: ADME, organism-based; details: in vivo
[11] = Permeability from apical to basolateral side in human Caco-2 cells at 5 uM; type: ADME, cell-based; details: read-out: permeability
[12] = Permeability from apical to basolateral side of human Caco-2 cells at 5 uM; type: ADME, cell-based; details: read-out: permeability
[13] = AUC in rat at 3 mg/kg, po; type: ADME, organism-based; set-up: dose 3 mg/kg, route oral; details: plasma
Rattus norvegicus [14] = test: fAUC in rat at 3 mg/kg, po; type: ADME, organism-based; set-up: dose 3 mg/kg, route oral; details: in vivo
[15] = Absorption in rat at 3 mg/kg, po; type: ADME, organism-based; set-up: dose 3 mg/kg, route oral; details: in vivo, read-out: Activity
[16] = Volume of distribution in rat at 1 mg/kg, iv; type: ADME, organism-based; set-up: dose 1 mg/kg, route intravenous; details: in vivo
Rattus norvegicus [17] = test: Unbound clearance in rat at 1 mg/kg, iv; type: ADME, organism-based; set-up: dose 1 mg/kg, route intravenous; details: in vivo
[18] = Oral bioavailability in rat at 3 mg/kg, po; type: ADME, organism-based; details: in vivo
[19] = Clearance in rat at 1 mg/kg, iv; type: ADME, organism-based; set-up: dose 1 mg/kg, route intravenous; details: in vivo
[20] = Metabolic stability in rat liver microsomes assessed as intrinsic clearance; type: ADME, Microsome
[21] = Terminal half life in rat at 1 mg/kg, iv; type: ADME, organism-based; set-up: dose 1 mg/kg, route intravenous; details: in vivo, read-out: beta t1/2 (converted)
[22] = AUC in rat at 1 mg/kg, iv; type: ADME, organism-based; set-up: dose 1 mg/kg, route intravenous; details: plasma
Rattus norvegicus [23] = test: fAUC in rat at 1 mg/kg, iv; type: ADME, organism-based; set-up: dose 1 mg/kg, route intravenous; details: in vivo
Rattus norvegicus [24] = test: Unbound volume of distribution in rat at 1 mg/kg, iv; type: ADME, organism-based; set-up: dose 1 mg/kg, route intravenous; details: in vivo

SMILES | IC50 [1] [nM] | Papp at 2 µM [2] [×10⁻⁶ cm/s] | inhibition (INH) [3] | microsomal CLint at 1 µM [4] [µL/min/mg] | also measured
Cc1nc2cc(F)ccc2n1C1C[C@H]2CC[C@@H](C1)N2CC[C@H](NC(=O)c1ccc([S+](C)[O-])cc1)c1cccc(F)c1 (stereo not given in full) | 36 | – | – | – | –
CCc1nc2ccccc2n1C1C[C@H]2CC[C@@H](C1)N2CC[C@H](NC(=O)C1CCS(=O)(=O)CC1)c1cccc(F)c1 (stereo not given in full) | 0.3 | 3 | Not Active | 25 | –
Cc1nc2ccccc2n1C1C[C@H]2CC[C@@H](C1)N2CC[C@H](NC(=O)C1CC[S+]([O-])CC1)c1cccc(F)c1 (stereo not given in full) | 0.2 | 0.8 | Not Active | 38 | logD [5]: 2.3; clearance [6]: 104 mL/min/kg; bioavailability [7]: < 1%; half-life [8]: 2.6 h; IC50 [9]: > 10000 nM; Vd [10]: 23 L/kg
Cc1nc2ccccc2n1C1C[C@H]2CC[C@@H](C1)N2CC[C@H](NC(=O)c1ccc(S(C)(=O)=O)cc1)c1cccc(F)c1 (stereo not given in full) | 40 | – | – | – | –
Cc1nc2cnccc2n1C1C[C@H]2CC[C@@H](C1)N2CC[C@H](NC(=O)C1CC[S+]([O-])CC1)c1cccc(F)c1 (stereo not given in full) | 4 | – | – | – | –
Cc1nc2ccc(F)cc2n1C1C[C@H]2CC[C@@H](C1)N2CCC(NC(=O)C1CC[S+]([O-])CC1)c1cccc(F)c1 (stereo not given in full) | 0.01 | – | Not Active | – | Papp A→B at 5 µM [11]: 18 ×10⁻⁶ cm/s; Papp A→B at 5 µM [12]: 2 ×10⁻⁶ cm/s
Cc1nc2ccncc2n1C1C[C@H]2CC[C@@H](C1)N2CC[C@H](NC(=O)c1ccc(S(C)(=O)=O)cc1)c1cccc(F)c1 (stereo not given in full) | 1 | – | – | – | –
Cc1nc2ccccc2n1C1C[C@H]2CC[C@@H](C1)N2CC[C@H](NC(=O)c1cc[n+]([O-])cc1)c1cccc(F)c1 (stereo not given in full) | 4 | – | – | – | –
Cc1nc2ccncc2n1C1C[C@H]2CC[C@@H](C1)N2CCC(NC(=O)C1CC[S+]([O-])CC1)c1cccc(F)c1 (stereo not given in full) | 1 | – | Not Active | 50 | Papp A→B at 5 µM [11]: 2 ×10⁻⁶ cm/s; Papp A→B at 5 µM [12]: 2 ×10⁻⁶ cm/s
Cc1nc2ccccc2n1C1C[C@H]2CC[C@@H](C1)N2CC[C@H](NC(=O)[C@H]1CC[S@+]([O-])CC1)c1cccc(F)c1 (stereo not given in full) | – | 1 | – | 111 | AUC [13]: 2 ng·h/mL; fAUC (Rattus norvegicus [14]): 0.3 ng·h/mL
Cc1nc2cc(F)ccc2n1C1C[C@H]2CC[C@@H](C1)N2CC[C@H](NC(=O)C1CCS(=O)(=O)CC1)c1cccc(F)c1 (stereo not given in full) | 0.03 | 2 | Not Active | 14 | Papp A→B at 5 µM [11]: 21 ×10⁻⁶ cm/s; Papp A→B at 5 µM [12]: 3 ×10⁻⁶ cm/s
CC[S+]([O-])CC(=O)N[C@@H](CCN1[C@@H]2CC[C@H]1CC(n1c(C)nc3ccccc31)C2)c1cccc(F)c1 (stereo not given in full) | > 100 | – | – | – | –
Cc1nc2cc(F)ccc2n1C1C[C@H]2CC[C@@H](C1)N2CCC(NC(=O)C1CC[S+]([O-])CC1)c1cccc(F)c1 (stereo not given in full) | 0.4 | 2 | Not Active | 93 | –
CCc1nc2ccccc2n1C1C[C@H]2CC[C@@H](C1)N2CC[C@H](NC(=O)c1cc[n+]([O-])cc1)c1cccc(F)c1 (stereo not given in full) | 24 | – | – | – | –
Cc1nc2ccc(F)cc2n1C1C[C@H]2CC[C@@H](C1)N2CC[C@H](NC(=O)c1ccc[n+]([O-])c1)c1cccc(F)c1 (stereo not given in full) | 0.5 | – | – | – | –
Cc1nc2ccc(F)cc2n1C1C[C@H]2CC[C@@H](C1)N2CC[C@H](NC(=O)c1ccc([S+](C)[O-])cc1)c1cccc(F)c1 (stereo not given in full) | 1 | – | – | – | –
Cc1nc2ccncc2n1C1C[C@H]2CC[C@@H](C1)N2CC[C@H](NC(=O)c1ccc([S+](C)[O-])cc1)c1cccc(F)c1 (stereo not given in full) | 2 | – | – | – | –
Cc1nc2ccncc2n1C1C[C@H]2CC[C@@H](C1)N2CC[C@H](NC(=O)c1cc[n+]([O-])cc1)c1cccc(F)c1 (stereo not given in full) | 4 | – | – | – | –
Cc1nc2ccccc2n1C1C[C@H]2CC[C@@H](C1)N2CC[C@H](NC(=O)c1cccc[n+]1[O-])c1cccc(F)c1 (stereo not given in full) | > 100 | – | – | – | –
Cc1nc2ccccc2n1C1C[C@H]2CC[C@@H](C1)N2CC[C@H](NC(=O)C1CCS(=O)(=O)CC1)c1cccc(F)c1 (stereo not given in full) | 0.2 | 4 | Not Active | 23 | AUC [13]: < 1 ng·h/mL; Papp A→B at 5 µM [11]: 20 ×10⁻⁶ cm/s; Papp A→B at 5 µM [12]: < 1 ×10⁻⁶ cm/s; fAUC (Rattus norvegicus [14]): < 0.1 ng·h/mL
Cc1nc2cc(F)ccc2n1C1C[C@H]2CC[C@@H](C1)N2CC[C@H](NC(=O)c1ccc(S(C)(=O)=O)cc1)c1cccc(F)c1 (stereo not given in full) | 8 | – | – | – | –
CCc1nc2ccccc2n1C1C[C@H]2CC[C@@H](C1)N2CCC(NC(=O)C1CC[S+]([O-])CC1)c1cccc(F)c1 (stereo not given in full) | 0.05 | 2 | Not Active | 89 | –
Cc1nc2ccccc2n1C1C[C@H]2CC[C@@H](C1)N2CC[C@H](NC(=O)c1ccc([S+](C)[O-])cc1)c1cccc(F)c1 (stereo not given in full) | 40 | – | – | – | –
Cc1nc2cc(F)ccc2n1C1C[C@H]2CC[C@@H](C1)N2CC[C@H](NC(=O)c1ccc[n+]([O-])c1)c1cccc(F)c1 (stereo not given in full) | 1 | – | – | – | –
Cc1nc2ccc(F)cc2n1C1C[C@H]2CC[C@@H](C1)N2CC[C@H](NC(=O)C1CCS(=O)(=O)CC1)c1cccc(F)c1 (stereo not given in full) | 0.01 | 2 | – | 10 | logD [5]: 2.9; Papp A→B at 5 µM [11]: 31 ×10⁻⁶ cm/s; Papp A→B at 5 µM [12]: 5 ×10⁻⁶ cm/s; Fa [15]: 3%
Cc1nc2ccccc2n1C1C[C@H]2CC[C@@H](C1)N2CC[C@H](NC(=O)c1ccc[n+]([O-])c1)c1cccc(F)c1 (stereo not given in full) | 5 | – | – | – | –
Cc1nc2ccccc2n1C1C[C@H]2CC[C@@H](C1)N2CC[C@H](NC(=O)C1CCSCC1)c1cccc(F)c1 (stereo not given in full) | 0.2 | 29 | – | > 320 | Vd [16]: 2 L/kg; CL free (Rattus norvegicus [17]): 2431 mL/min/kg; AUC [13]: 10 ng·h/mL; logD [5]: 3.7; bioavailability [18]: 1%; fAUC (Rattus norvegicus [14]): 0.25 ng·h/mL; clearance [19]: 60 mL/min/kg; microsomal CLint [20]: > 510 µL/min/mg; half-life [21]: 0.8 h; IC50 [9]: 740 nM; AUC [22]: 270 ng·h/mL; fAUC (Rattus norvegicus [23]): 6.7 ng·h/mL; Vdu (Rattus norvegicus [24]): 81 L/kg; Fa [15]: 9%
Cc1nc2cc(F)ccc2n1C1C[C@H]2CC[C@@H](C1)N2CC[C@H](NC(=O)c1cc[n+]([O-])cc1)c1cccc(F)c1 (stereo not given in full) | 0.1 | – | – | – | –
Cc1nc2ccccc2n1C1C[C@H]2CC[C@@H](C1)N2CC[C@H](NC(=O)[C@H]1CC[S@@+]([O-])CC1)c1cccc(F)c1 (stereo not given in full) | – | 1 | – | 36 | AUC [13]: 11 ng·h/mL; Papp A→B at 5 µM [11]: 20 ×10⁻⁶ cm/s; Papp A→B at 5 µM [12]: 2 ×10⁻⁶ cm/s; fAUC (Rattus norvegicus [14]): 1.7 ng·h/mL
Cc1nc2ccncc2n1C1C[C@H]2CC[C@@H](C1)N2CC[C@H](NC(=O)C1CCS(=O)(=O)CC1)c1cccc(F)c1 (stereo not given in full) | 0.2 | 1 | Not Active | < 8 | –
